According to patent publication US20210253598A1, “ARYL ANNULATED MACROCYCLIC INDOLE DERIVATIVES” (priority 2017, published 2021):
Several values for one entry are separate records, joined by “and”; a condition that tells them apart may be missing. Identical values can stand only once. Counter-ions that a name gives are not always drawn. Like-named read-outs stand apart in the source and are kept apart here.

Legend:
BCL-XL = BCL-XL (Homo sapiens, UniProt Q07817); assay: Protein-protein interaction assay BCL-XL/Bad BH3 peptide, TR-FRET (BCL-XL assay, Assay 2); assay type: binding; settings: His-BCL-XL / Bad BH3 peptide, median
Chain of BCL-XL (Q07817 1-212): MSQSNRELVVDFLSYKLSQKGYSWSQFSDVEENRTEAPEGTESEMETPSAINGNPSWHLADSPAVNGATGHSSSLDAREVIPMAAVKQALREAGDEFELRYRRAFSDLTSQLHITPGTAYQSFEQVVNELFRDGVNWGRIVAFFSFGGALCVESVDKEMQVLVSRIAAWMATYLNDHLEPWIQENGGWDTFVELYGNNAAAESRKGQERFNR

MCL1 protein = target: T1, MCL1 protein (Homo sapiens, UniProt Q07820); assay: PIxEL: protein-protein interaction in permeabilized cells by ELISA (Assay 5); assay type: cell-based; settings: permeabilized RKO cells, biotin-BIM BH3 peptide 0.2 μM, serum free
T1 construct: this assay uses full length endogenous MCL1 protein at mitochondria outer membrane; endogenous in cells; host or cells: RKO colon cancer cell line
T1 sequence (Q07820 whole entry): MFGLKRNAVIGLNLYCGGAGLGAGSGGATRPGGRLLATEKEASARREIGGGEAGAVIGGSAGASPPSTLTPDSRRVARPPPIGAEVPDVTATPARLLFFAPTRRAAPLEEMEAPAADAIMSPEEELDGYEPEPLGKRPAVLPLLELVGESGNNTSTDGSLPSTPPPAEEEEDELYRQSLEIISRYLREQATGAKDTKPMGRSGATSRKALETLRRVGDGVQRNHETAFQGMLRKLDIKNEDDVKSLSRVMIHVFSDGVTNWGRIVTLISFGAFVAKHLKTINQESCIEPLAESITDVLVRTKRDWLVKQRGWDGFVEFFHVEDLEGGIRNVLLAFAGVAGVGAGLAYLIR
Procedure: PIxEL: Protein-Protein Interaction in Permeabilized Cells by ELISA
Most MCL1 protein molecules are localized at the mitochondria outer membrane and sequester pro-apoptotic proteins through binding of their BCL2 homology domain 3 (BH3 domain). MEB buffer (150 mM mannitol, 10 mM HEPES pH 7.5, 50 mM KCl, 20 μM EDTA, 20 μM EGTA, 5 mM potassium succinate, 0.1% protease-free BSA (SIGMA) with low dose digitonin (0.002%) permeabilizes plasma membrane while leaves live mitochondria, where MCL1 maintains its native localization and conformation. Unlike biophysical assays (e.g. TR-FRET) that use truncated recombinant MCL1 protein, this assay uses full length endogenous MCL1 protein at mitochondria outer membrane. It measures the interaction between MCL1 protein and biotinylated BIM BH3 peptide. Compounds can compete with BIM BH3 peptide to bind to MCL1 protein.
On day 1, RKO colon cancer cell line cells were plated at 0.8 million cells/ml, 100 μl/well in 96-well flat bottom TC plates (Corning). […] Each plate was tapped to make sure liquid covering entire bottom of wells and incubate at 37° C. overnight.
On the second day, MCL1 antibody was washed from ELISA plate. 250 μl Odyssey® Blocking Buffer (PBS) (Li-Cor) was added to each well, incubated at room temperature for at least 1 hour, then washed once with 250 μl 1×PBST. Plates with RKO cells were gently washed once with 100 μl/well PBS, once with 100 μl/well MEB buffer without digitonin, then 100 μl of MEB buffer with 0.002% digitonin was gently added to each well. Compounds were added with HP Tecan compound dispenser in 3-fold dilution series, highest dose 30 μM, 10-dose per compound in quadruplicates. Biotin-BIM peptide (synthesized by 21st Century) was added with HP Tecan compound dispenser at 0.2 μM immediately after the addition of compounds. Plates were rocked for 1 h at room temperature. Then MEB buffer was aspirated and 50 μl of CHAPS buffer (50 mM Tris-Cl, pH 7.4, 150 mM NaCl, 1% CHAPS, 1 mM EDTA, 1 mM EGTA, complete protease inhibitors (Roche), PhosSTOP (Roche)) was added to each well. Plates were rocked for 1 hour at 4° C., then 45 μl cell lysate from each well were transferred to ELISA plates coated with MCL1 antibody. Plates were incubated overnight in the cold room with rocking.
On the third day, ELISA plates were washed once with 250 μl 1×PBST. Streptavidin-poly-HRP (Thermo Fisher Scientific) was diluted to 20 ng/ml in Odyssey blocking buffer plus 0.05% Triton-100, and 100 μl was added to each well of the ELISA plate. Plates were incubated at RT for 1 hour with rocking, then washed with 100 μL 1×PBST for 3 times. Each SuperSignal ELISA Femto Maximum Sensitivity substrate was added to a 50-ml tube and mixed, then 100 μl of mixed substrate was added to each well. Plates were shaken for 1 minute then luminescence was measured by Envision plate reader […]. Signal of each well were normalized by no-compound control and no-cell control. IC50 was calculated using Graphic Pad PRISM software.

AMO-1 = assay: Anti-proliferative effect in AMO-1 cells, CellTiter-Glo (Assay 7); assay type: cell-based
In short: (§1)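 CellTiter-Glo luminescence after 72 h compound exposure at 37 °C; a parallel time-zero plate was read the same way. IC50 derived relative to day 0 signal and DMSO control.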

A2780 = assay: Anti-proliferative effect in A2780 cells, CellTiter-Glo (Assay 7); assay type: cell-based; settings: several values per example
In short: as §1

MCL-1 = MCL-1 (Homo sapiens, UniProt Q07820, K194A/K197A/R201A); assay: Protein-compound interaction assay, surface plasmon resonance (SPR assay, Assay 8); assay type: binding; settings: for Kd: SPR, immobilized MBP-MCL-1, 25° C.
Chain of MCL-1 (Q07820 173-321 K194A/K197A/R201A, looked up): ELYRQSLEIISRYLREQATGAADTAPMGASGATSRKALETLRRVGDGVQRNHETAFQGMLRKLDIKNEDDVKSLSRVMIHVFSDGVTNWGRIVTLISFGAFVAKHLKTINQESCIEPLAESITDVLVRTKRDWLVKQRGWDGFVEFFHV
Excerpt: Protein-Compound Interaction Assay (SPR Assay)
The ability of the compounds described in this invention to bind to MCL-1 may be determined using surface plasmon resonance (SPR). This allows for the quantification of binding in terms of the equilibrium dissociation constant (KD [M]), as well as association and dissociation rate constants (kon [1/M 1/s] and koff [1/s], respectively). The measurements may be performed using Biacore® T200 or Biacore® S200 instruments (GE Healthcare).
Briefly, carboxymethylated dextran biosensor chips (Series S Sensor Chip CM5, GE Healthcare) were activated with 1-ethyl-3-(3-dimethylaminopropyl)-carbodiimide hydrochloride (EDC) and N-hydroxysuccinimide (NHS) according to the supplier's instructions. MBP-MCL-1 was diluted in 1×PBS-P+ (GE Healthcare) and injected on the activated chip surface. Subsequently, a solution of 1 M ethanolamine-HCl (GE Healthcare) was injected to block unreacted groups, resulting in approximately 400-2500 response units (RU) of immobilized protein. A reference surface was generated by treatment with NHS-EDC and ethanolamine-HCl. […] Compounds were injected for 60 s followed by a dissociation time of up to 1000 s.
The double-referenced sensorgrams were fit to a simple reversible Langmuir 1:1 reaction mechanism as implemented in the Biacore® T200 and S200 evaluation software (T200 evaluation software version 2.0 and S200 evaluation software version 1.0, GE Healthcare).

[1] = AMO-1, 72 hours incubation, CellTiter-Glo; several values per example; read-out: Antiproli AMO-1
[2] = read-out: koff [1/s], SPR, immobilized MBP-MCL-1, 25° C., geometric mean
[3] = read-out: kon [1/M 1/s], SPR, immobilized MBP-MCL-1, 25° C., geometric mean

SMILES	IC50 (BCL-XL)	IC50 (AMO-1; [1])	IC50 (MCL1 protein; PIxEL [M] (median))	Kd (MCL-1; KD [M], geometric mean)	koff (MCL-1; [2])	kon (MCL-1; [3])	further results
CCc1nn(CCN2CCOCC2)c2c1-c1c(Cl)ccc3c(CCCOc4cccc5cc(F)ccc45)c(C(=O)O)n(c13)Cc1ccccc1COC2 (single isomer, unassigned; enantiomer 1) [Example 52, (−)-3-Chloro-4-ethyl-17-{3-[(6-fluoronaphthalen-1-yl)oxy]propyl}-6-[2-(morpholin-4-yl)ethyl]-6,7,9,14-tetrahydroindolo[7,1-fg]pyrazolo[3,4-d][2,8]benzoxazacycloundecine-16-carboxylic Acid (Enantiomer 1)]	> 20 µM	2.27 µM					IC50 (MCL1 protein; median, read-out: PIxEL [M] (median)): 3.68e-07 M; IC50 (A2780; A2780, 72 hours incubation, CellTiter-Glo, read-out: Antiproli A2780): 2.41e-06 M; Kd (MCL-1; geometric mean, read-out: KD): 1.5e-09 M; koff (MCL-1; read-out: koff [1/s]): 0.024 s⁻¹; kon (MCL-1; read-out: kon [1/M 1/s]): 1.6e+07 M⁻¹ s⁻¹
Cc1c2c(nn1C)COCc1ccccc1Cn1c(C(=O)O)c(CCCOc3cccc4cc(F)ccc34)c3ccc(F)c-2c31 (single isomer, unassigned; enantiomer 1) [Example 65, (−)-3-fluoro-17-{3-[(6-fluoronaphthalen-1-yl)oxy]propyl}-4,5-dimethyl-5,7,9,14-tetrahydroindolo[7,1-fg]pyrazolo[3,4-d][2,8]benzoxazacycloundecine-16-carboxylic acid-N-ethylethanamine Salt (Enantiomer 1)]	> 20 µM	1.75 µM	1.04e-06 M	1.4e-09 M	0.011 s⁻¹	8e+06 M⁻¹ s⁻¹	IC50 (AMO-1; Homo sapiens, AMO1, 72 h, AMO-1, 72 hours incubation, CellTiter-Glo; several values per example; read-out: Antiproli AMO-1): 2 µM; IC50 (A2780; Homo sapiens, A2780, 72 h, A2780, 72 hours incubation, CellTiter-Glo, read-out: Antiproli A2780): 1.01e-05 M
Cc1c2c(nn1C)COCc1ncccc1Cn1c(C(=O)O)c(CCCOc3cccc4ccccc34)c3cccc-2c31 (single isomer, unassigned; enantiomer 1) [Example 8, 4,5-Dimethyl-17-[3-(naphthalen-1-yloxy)propyl]-5,7,9,14-tetrahydropyrazolo[4′,3′:9,10]-pyrido[2′,3′:3,4][1,6]oxazacycloundecino[8,7,6-hi]indole-16-carboxylic acid-N-ethylethanamine Salt (Enantiomer 1)]	> 20 µM		1.82e-05 M	3.4e-09 M			
Cc1c2c(nn1C)COCc1ccccc1Cn1c(C(=O)O)c(CCCOc3cccc4cc(F)ccc34)c3ccc(Cl)c-2c31 (racemic) [Example 48, (rac)-3-Chloro-17-{3-[(6-fluoronaphthalen-1-yl)oxy]propyl}-4,5-dimethyl-5,7,9,14-tetrahydroindolo[7,1-fg]pyrazolo[3,4-d][2,8]benzoxazacycloundecine-16-carboxylic Acid]				8e-09 M	0.006 s⁻¹	750000 M⁻¹ s⁻¹	
Cc1c2c(nn1C)COCc1ccccc1Cn1c(C(=O)O)c(CCCOc3cccc4ccccc34)c3ccc(Cl)c-2c31 (single isomer, unassigned; enantiomer 1) [Example 37, (−)-3-Chloro-4,5-dimethyl-17-[3-(naphthalen-1-yloxy)propyl]-5,7,9,14-tetrahydroindolo[7,1-fg]pyrazolo[3,4-d][2,8]benzoxazacycloundecine-16-carboxylic Acid (Enantiomer 1)]	> 20 µM		1.61e-06 M	4.7e-09 M	0.011 s⁻¹	2.4e+06 M⁻¹ s⁻¹	
Cc1c2c(nn1C)COCc1ccccc1Cn1c(C(=O)O)c(CCCOc3cccc4ccccc34)c3ccc(F)c-2c31 (single isomer, unassigned; enantiomer 1) [Example 68, (−)-3-Fluoro-4,5-dimethyl-17-{3-[(naphthalen-1-yl)oxy]propyl}-5,7,9,14-tetrahydroindolo[7,1-fg]pyrazolo[3,4-d][2,8]benzoxazacycloundecine-16-carboxylic acid-N-ethylethanamine Salt (Enantiomer 1)]	> 20 µM		2.16e-06 M				IC50 (AMO-1; read-out: Antiproli AMO-1; AMO-1, 72 hours incubation, CellTiter-Glo; several values per example): 4.4 µM and 4.89 µM; IC50 (A2780; Homo sapiens, A2780, 72 h, read-out: Antiproli A2780 [M], A2780, 72 hours incubation, CellTiter-Glo): 2.9e-05 M
